Tests used:
[1] = target: Macrophage colony-stimulating factor 1 receptor (Homo sapiens, UniProt P07333); experiment: Displacement of kinase tracer 236 from recombinant human His-tagged CSF1R cytoplasmic domain (538 to 910 residues) expressed in baculovirus-infected insect cells measured after 5 hrs by TR-FRET based LanthaScreen assay
[2] = target: Vascular endothelial growth factor receptor 2 (Homo sapiens, UniProt P35968); experiment: Displacement of kinase tracer 236 from recombinant human His-tagged KDR cytoplasmic domain (789 to 1356 residues) expressed in baculovirus-infected insect cells measured after 5 hrs by TR-FRET based LanthaScreen assay
Chain of Vascular endothelial growth factor receptor 2 (P35968 whole entry, the tested form may be a part): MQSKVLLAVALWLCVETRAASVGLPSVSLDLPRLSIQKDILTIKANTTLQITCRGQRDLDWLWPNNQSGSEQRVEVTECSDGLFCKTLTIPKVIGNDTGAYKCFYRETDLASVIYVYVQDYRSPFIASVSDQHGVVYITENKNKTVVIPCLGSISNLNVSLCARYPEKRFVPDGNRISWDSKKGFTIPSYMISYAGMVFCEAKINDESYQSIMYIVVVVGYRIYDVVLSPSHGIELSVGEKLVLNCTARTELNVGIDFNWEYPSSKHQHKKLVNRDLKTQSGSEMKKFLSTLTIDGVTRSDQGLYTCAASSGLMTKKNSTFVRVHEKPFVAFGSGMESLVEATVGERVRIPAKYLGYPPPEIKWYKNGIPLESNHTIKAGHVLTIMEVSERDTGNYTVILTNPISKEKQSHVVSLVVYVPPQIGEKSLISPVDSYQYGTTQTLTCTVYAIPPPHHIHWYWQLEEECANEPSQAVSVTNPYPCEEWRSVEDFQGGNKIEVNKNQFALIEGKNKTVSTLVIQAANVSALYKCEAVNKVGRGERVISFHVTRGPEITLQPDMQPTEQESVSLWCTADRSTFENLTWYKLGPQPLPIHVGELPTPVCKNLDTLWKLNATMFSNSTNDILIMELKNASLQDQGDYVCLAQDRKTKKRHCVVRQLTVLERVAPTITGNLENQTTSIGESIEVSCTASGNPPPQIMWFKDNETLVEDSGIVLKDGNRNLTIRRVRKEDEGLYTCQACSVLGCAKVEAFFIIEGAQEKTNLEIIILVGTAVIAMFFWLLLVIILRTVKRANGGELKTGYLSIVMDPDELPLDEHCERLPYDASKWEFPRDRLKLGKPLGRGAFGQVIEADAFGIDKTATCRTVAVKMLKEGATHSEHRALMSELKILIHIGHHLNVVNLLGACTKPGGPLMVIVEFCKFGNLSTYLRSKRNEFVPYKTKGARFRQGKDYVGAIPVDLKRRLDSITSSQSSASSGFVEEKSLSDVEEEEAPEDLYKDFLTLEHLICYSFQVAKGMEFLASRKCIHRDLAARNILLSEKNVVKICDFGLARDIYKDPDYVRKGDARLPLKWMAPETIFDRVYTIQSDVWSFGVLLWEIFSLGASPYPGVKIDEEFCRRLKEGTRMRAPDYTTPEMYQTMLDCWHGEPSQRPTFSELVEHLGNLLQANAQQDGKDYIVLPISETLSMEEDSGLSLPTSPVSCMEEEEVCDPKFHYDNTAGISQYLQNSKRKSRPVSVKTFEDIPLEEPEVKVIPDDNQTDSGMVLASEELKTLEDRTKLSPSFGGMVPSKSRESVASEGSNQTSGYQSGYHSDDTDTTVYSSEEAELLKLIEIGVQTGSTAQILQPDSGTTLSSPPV

Chain of Macrophage colony-stimulating factor 1 receptor (P07333 whole entry, the tested form may be a part): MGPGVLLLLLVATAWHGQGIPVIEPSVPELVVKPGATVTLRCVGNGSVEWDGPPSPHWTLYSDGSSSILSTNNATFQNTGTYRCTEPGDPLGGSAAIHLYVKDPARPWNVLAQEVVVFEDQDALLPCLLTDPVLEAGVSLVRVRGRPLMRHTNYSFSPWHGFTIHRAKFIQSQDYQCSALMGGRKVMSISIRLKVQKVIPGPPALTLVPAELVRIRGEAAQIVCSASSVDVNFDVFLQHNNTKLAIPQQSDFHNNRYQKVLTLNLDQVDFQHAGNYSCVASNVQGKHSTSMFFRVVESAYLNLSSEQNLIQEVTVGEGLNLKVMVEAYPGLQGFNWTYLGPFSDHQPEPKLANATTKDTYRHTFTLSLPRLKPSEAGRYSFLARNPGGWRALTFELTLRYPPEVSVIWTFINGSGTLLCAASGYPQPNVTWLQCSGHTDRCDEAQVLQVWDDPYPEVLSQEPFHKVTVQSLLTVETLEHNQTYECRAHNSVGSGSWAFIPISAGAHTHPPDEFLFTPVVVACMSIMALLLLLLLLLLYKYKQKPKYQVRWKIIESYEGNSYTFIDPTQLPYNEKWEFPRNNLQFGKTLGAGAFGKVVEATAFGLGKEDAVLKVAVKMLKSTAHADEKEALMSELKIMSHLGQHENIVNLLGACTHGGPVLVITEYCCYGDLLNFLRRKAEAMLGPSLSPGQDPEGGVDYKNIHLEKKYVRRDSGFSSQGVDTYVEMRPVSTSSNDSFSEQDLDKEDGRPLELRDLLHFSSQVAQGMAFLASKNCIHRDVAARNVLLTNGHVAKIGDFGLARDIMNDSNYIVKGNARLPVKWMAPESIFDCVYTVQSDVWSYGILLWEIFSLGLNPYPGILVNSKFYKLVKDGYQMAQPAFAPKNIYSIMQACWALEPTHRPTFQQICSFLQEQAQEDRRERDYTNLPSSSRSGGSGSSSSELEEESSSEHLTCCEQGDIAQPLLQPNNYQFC

Compound | IC50 [1] | IC50 [2]
Cc1ccc(F)c(NC(=O)Cc2ccc(-n3c4c(c5ncnc(N)c53)COC4)cc2)c1 | 10 to 200 nM | > 200 nM
COc1ccc(NC(=O)Cc2ccc(-n3c4c(c5ncnc(N)c53)CCC4)cc2)c(F)c1 | 10 to 200 nM | > 200 nM
Nc1ncnc2c3c(n(-c4ccc(CC(=O)Nc5ccc(Cl)c(C(F)(F)F)c5)cc4)c12)COC3 | < 10 nM | > 200 nM
CC(C)c1cn(C)c2ccc(CC(=O)Nc3ccc(-n4c5c(c6ncnc(N)c64)CCC5)cc3)cc12 | 10 to 200 nM | > 200 nM
COc1ccc(NC(=O)Cc2ccc(-n3c4c(c5ncnc(N)c53)CCC4)cc2)cn1 | 10 to 200 nM | > 200 nM
COc1cc(CC(=O)Nc2ccc(-n3c4c(c5ncnc(N)c53)CCC4)cc2)ccc1C | < 10 nM | > 200 nM
COc1cc(-n2c3c(c4ncnc(N)c42)COC3)ccc1NC(=O)Cc1ccc(OC(F)(F)F)cc1 | 6 nM | > 200 nM
Nc1ncnc2c3c(n(-c4ccc(CC(=O)Nc5ccc(Cl)c(C(F)(F)F)c5)cc4)c12)CCC3 | 9 nM | > 200 nM
COc1cc(-n2c3c(c4ncnc(N)c42)CCC3)ccc1NC(=O)Cc1ccc2c(c1)CCN2CC(F)(F)F | < 10 nM | > 200 nM
Nc1ncnc2c3c(n(-c4ccc(NC(=O)Cc5ccc(Cl)nn5)cc4)c12)CCC3 | 10 to 200 nM | > 200 nM
Cn1ccc2cc(CC(=O)Nc3ccc(-n4c5c(c6ncnc(N)c64)COC5)cc3)ccc21 | 10 to 200 nM | > 200 nM
Nc1ncnc2c3c(n(-c4ccc(NC(=O)Cc5ccc6c(c5)CCN6CC(F)(F)F)cc4)c12)CCC3 | < 10 nM | > 200 nM
Cn1ccc2cc(CC(=O)Nc3ccc(-n4c5c(c6ncnc(N)c64)CCC5)cc3)ccc21 | 4 nM | > 200 nM
Nc1ncnc2c3c(n(-c4ccc(CC(=O)Nc5ccc6c(c5)CCC6)cc4)c12)CCC3 | < 10 nM | 10 to 200 nM
COc1ccc(CC(=O)Nc2ccc(-n3c4c(c5ncnc(N)c53)CCC4)cc2)c(OC)c1 | < 10 nM | > 200 nM
Cc1cc(CC(=O)Nc2ccc(-n3c4c(c5ncnc(N)c53)CCC4)cc2)on1 | 10 to 200 nM | > 200 nM
CC(C(=O)Nc1ccc(-n2c3c(c4ncnc(N)c42)CCC3)cc1)c1ccccc1 (configuration not stated) | 10 to 200 nM | > 200 nM
Nc1ncnc2c3c(n(-c4ccc(NC(=O)Cc5ccc(OC(F)(F)F)cc5)cc4)c12)COC3 | < 10 nM | > 200 nM
Nc1ncnc2c3c(n(-c4ccc(CC(=O)Nc5ccccc5)cc4)c12)CCC3 | 10 to 200 nM | > 200 nM
Nc1ncnc2c3c(n(-c4ccc(NC(=O)CC5CCNCC5)cc4)c12)CCC3 | > 200 nM | > 200 nM
Cc1ccc(CC(=O)Nc2ccc(-n3c4c(c5ncnc(N)c53)COC4)cc2)c(F)c1 | 10 to 200 nM | > 200 nM

Compound | IC50 [1] | IC50 [2]
COc1ccc(CC(=O)Nc2ccc(-n3c4c(c5ncnc(N)c53)CCC4)cc2)cc1C | < 10 nM | > 200 nM
COc1ccc(CC(=O)Nc2ccc(-n3c4c(c5ncnc(N)c53)COC4)cc2)cc1C(F)(F)F | < 10 nM | > 200 nM
Cc1ccc(CC(=O)Nc2ccc(-n3c4c(c5ncnc(N)c53)CCC4)cc2)c(F)c1 | < 10 nM | 10 to 200 nM
Nc1ncnc2c3c(n(-c4ccc(CC(=O)Nc5ccc(C(F)(F)F)nc5)cc4)c12)CCC3 | 10 to 200 nM | > 200 nM
Cc1ccc(CC(=O)Nc2ccc(-n3c4c(c5ncnc(N)c53)CCC4)cc2)cc1F | < 10 nM | > 200 nM
Nc1ncnc2c3c(n(-c4ccc(NC(=O)Cc5ccc(F)cc5C(F)(F)F)cc4)c12)CCC3 | < 10 nM | > 200 nM
Nc1ncnc2c3c(n(-c4ccc(NC(=O)Cc5nc6ccccc6s5)cc4)c12)CCC3 | 10 to 200 nM | > 200 nM
Nc1ncnc2c3c(n(-c4ccc(CC(=O)Nc5ccc(Cl)c(Cl)c5)cc4)c12)CCC3 | < 10 nM | > 200 nM
COc1ccc(CC(=O)Nc2ccc(-n3c4c(c5ncnc(N)c53)CCC4)cc2)cc1C(F)(F)F | < 10 nM | > 200 nM
Nc1ncnc2c3c(n(-c4ccc(NC(=O)Cc5ccc(Cl)c(C(F)(F)F)c5)cc4)c12)COC3 | < 10 nM | > 200 nM
COc1ccc(CC(=O)Nc2ccc(-n3c4c(c5ncnc(N)c53)CCC4)cc2)cc1N(C)C | 10 to 200 nM | > 200 nM
Nc1ncnc2c3c(n(-c4ccc(NC(=O)Cc5ccc(C(F)(F)F)nn5)cc4)c12)CCC3 | 10 to 200 nM | > 200 nM
Nc1ncnc2c3c(n(-c4ccc(CC(=O)Nc5ccc(OC(F)(F)F)cc5)cc4)c12)CCC3 | 10 to 200 nM | > 200 nM
Nc1ncnc2c3c(n(-c4ccc(CC(=O)Nc5ccc(C(F)(F)F)c(Cl)c5)cc4)c12)CCC3 | < 10 nM | > 200 nM
COc1cc(-n2c3c(c4ncnc(N)c42)CCC3)ccc1NC(=O)Cc1ccc(OC(F)(F)F)cc1 | < 10 nM | > 200 nM
COc1ccc(NC(=O)Cc2ccc(-n3c4c(c5ncnc(N)c53)COC4)cc2)cc1C(F)(F)F | < 10 nM | 10 to 200 nM
Nc1ncnc2c3c(n(-c4ccc(CC(=O)Nc5ccc(C(F)(F)F)cn5)cc4)c12)CCC3 | 10 to 200 nM | > 200 nM
COc1cc(-n2c3c(c4ncnc(N)c42)CCC3)ccc1NC(=O)Cc1cc(C)ccc1F | < 10 nM | > 200 nM
Cc1ccc(F)c(CC(=O)Nc2ccc(-n3c4c(c5ncnc(N)c53)CCC4)cc2)c1 | < 10 nM | > 200 nM
Nc1ncnc2c3c(n(-c4ccc(CC(=O)Nc5cc(C(F)(F)F)ccc5F)cc4)c12)COC3 | 10 to 200 nM | > 200 nM
COc1ccc(CC(=O)Nc2ccc(-n3c4c(c5ncnc(N)c53)CCC4)cc2)nc1 | 10 to 200 nM | > 200 nM

Compound | IC50 [1] | IC50 [2]
Nc1ncnc2c3c(n(-c4ccc(CC(=O)Nc5cc(C(F)(F)F)ccc5F)cc4)c12)CCC3 | < 10 nM | 10 to 200 nM
Nc1ncnc2c3c(n(-c4ccc(NC(=O)Cc5ccccc5)c(F)c4)c12)COC3 | > 200 nM | > 200 nM
COc1cc(CC(=O)Nc2ccc(-n3c4c(c5ncnc(N)c53)COC4)cc2)ccc1C | 10 to 200 nM | > 200 nM
Nc1ncnc2c3c(n(-c4ccc(NC(=O)Cc5ccc6c(c5)CCC6)cc4)c12)CCC3 | < 10 nM | > 200 nM
COc1cc(-n2c3c(c4ncnc(N)c42)CCC3)ccc1NC(=O)Cc1ccc(OC)c(C(F)(F)F)c1 | 10 to 200 nM | > 200 nM
Cc1ccc(F)c(CC(=O)Nc2ccc(-n3c4c(c5ncnc(N)c53)COC4)cc2)c1 | 10 to 200 nM | > 200 nM
Nc1ncnc2c3c(n(-c4ccc(NC(=O)CCc5c[nH]c6ccccc56)cc4)c12)CCC3 | > 200 nM | > 200 nM
Nc1ncnc2c3c(n(-c4ccc(NC(=O)c5c[nH]c6ccccc56)cc4)c12)CCC3 | > 200 nM | > 200 nM
Cn1ccc2cc(NC(=O)Cc3ccc(-n4c5c(c6ncnc(N)c64)CCC5)cc3)ccc21 | < 10 nM | > 200 nM
Cc1ccc(F)c(NC(=O)Cc2ccc(-n3c4c(c5ncnc(N)c53)CCC4)cc2)c1 | < 10 nM | 10 to 200 nM
Nc1ncnc2c3c(n(-c4ccc(NC(=O)Cc5cc(C(F)(F)F)ccc5F)c(F)c4)c12)COC3 | 10 to 200 nM | > 200 nM
COc1ccc(CC(=O)Nc2ccc(-n3c4c(c5ncnc(N)c53)CCC4)cc2F)c(F)c1 | 10 to 200 nM | > 200 nM
Nc1ncnc2c3c(n(-c4ccc(CC(=O)Nc5ccnc(C(F)(F)F)c5)cc4)c12)CCC3 | 10 to 200 nM | 10 to 200 nM
COc1ccc(CC(=O)Nc2ccc(-n3c4c(c5ncnc(N)c53)COC4)cc2)cc1C | < 10 nM | > 200 nM
Nc1ncnc2c3c(n(-c4ccc(NC(=O)Cc5ccccc5)cc4F)c12)CCC3 | 47 nM | > 200 nM
COc1ccc(NC(=O)Cc2ccc(-n3c4c(c5ncnc(N)c53)CCC4)cc2)cc1C(F)(F)F | < 10 nM | 10 to 200 nM
COc1ccc(CC(=O)Nc2ccc(-n3c4c(c5ncnc(N)c53)CCC4)cc2)cc1Br | < 10 nM | < 10 nM
Nc1ncnc2c3c(n(-c4ccc(CC(=O)Nc5ccc(OC(F)(F)F)cc5)cc4)c12)COC3 | 10 to 200 nM | > 200 nM
Nc1ncnc2c3c(n(-c4ccc(NC(=O)Cc5cc(C(F)(F)F)ccc5F)c(F)c4)c12)CCC3 | 10 to 200 nM | > 200 nM

Source: ChEMBL document CHEMBL4418299, “Compounds useful as csf1 modulators” (2016)
